Data: ChEMBL document CHEMBL1201862, “PubChem BioAssay data set” (2004)
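A five-concentration, 48-hour dose response in 96-well plates underlies each endpoint, interpolated linearly between surrounding concentrations. The concentration for 50% growth inhibition is given as GI50.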 Activity calls are given as the source filed them. No stated cut-off is given here; in the data, active = GI50 up to about 1.1 µM and inactive = higher.

Columns and labels:
Test in all cases: growth of human tumour cells (NCI), 48 h
[1] = tested on: XF498
[2] = tested on: DMS-114
[3] = tested on: RXF 631
[4] = tested on: M19-MEL
[5] = tested on: DLD-1
[6] = tested on: LXFL 529
[7] = tested on: HOP-18

Measured: GI50

COc1ccc(C(c2ccccc2)(c2ccc(OC)cc2)N2C(=O)NC3C(CCCCC(=O)NCCCCCCOP(OCCC#N)N(C(C)C)C(C)C)SCC32)cc1 (configuration not stated)
inactive: [1] 15.8 µM | [2] 17.7 µM | [3] 4.06 µM | [4] 16.8 µM | [5] 14.8 µM | [6] 11.9 µM | [7] 11.8 µM

C[C@]12CCc3nonc3C1CC[C@@H]1C2CC[C@]2(C)C(=O)CCC12 (some centres not stated)
inactive: [1] 17.5 µM | [2] 22.4 µM | [3] 57.8 µM | [4] 25.8 µM | [5] 50 µM | [6] 35.9 µM | [7] > 100 µM

NC(CCCNc1ccc(O)cc1)C(=O)O (configuration not stated)
inactive: [1] 22.5 µM | [2] 24.9 µM | [3] 54.3 µM | [4] 18.2 µM | [5] 20.4 µM | [6] 18.3 µM | [7] > 76.4 µM

N=C(NC(=N)Nc1ccc(S(=O)(=O)Nc2cnc3ccccc3n2)cc1)Nc1ccc(Br)cc1
inactive: [1] > 100 µM | [2] > 100 µM | [3] > 100 µM | [4] > 100 µM | [5] > 100 µM | [6] > 100 µM | [7] > 100 µM

COc1cc(OC)c2c(O)cc(CC(C)O)cc2c1 (configuration not stated)
inactive: [1] > 100 µM | [2] > 100 µM | [3] > 100 µM | [4] > 100 µM | [5] > 100 µM | [6] > 100 µM | [7] > 100 µM

NC(=O)c1ncn(Cc2ccccc2)c1CNC(N)=S
inactive: [1] > 100 µM | [2] > 100 µM | [3] > 100 µM | [4] > 100 µM | [5] > 100 µM | [6] > 100 µM | [7] > 100 µM
